18 compounds from patent US8410132B2, “Modulators of cystic fibrosis transmembrane conductance regulator” (Vertex Pharmaceuticals Incorporated, priority 2007, dated 2013) can be followed below.

The target in this assay is T1, ΔF508-CFTR (Homo sapiens, UniProt P13569, DEL508-508).
T1 construct: expressed in transfected cells; host or cells: Fisher rat epithelial (FRT) cells expressing ΔF508-CFTR (Ussing chamber); NIH3T3 cells stably expressing ΔF508-CFTR (whole-cell recordings)
Put plainly: Assay for detecting and measuring ΔF508-CFTR potentiation properties of compounds (membrane potential optical method / Ussing chamber). The settings on record: for Emax: relative efficacy, efficacy compared to that of the known potentiator genistein; for EC50: ΔF508-CFTR potentiation. It is filed as cell-based. An excerpt:
Assays for Detecting and Measuring ΔF508-CFTR Potentiation Properties of Compounds
Membrane Potential Optical Methods for Assaying ΔF508-CFTR Modulation Properties of Compounds
The optical membrane potential assay utilized voltage-sensitive FRET sensors described by Gonzalez and Tsien (See, Gonzalez, J. E. and R. Y. Tsien (1995) “Voltage sensing by fluorescence resonance energy transfer in single cells” Biophys J 69(4): 1272-80, and Gonzalez, J. E. and R. Y. Tsien (1997) “Improved indicators of cell membrane potential that use fluorescence resonance energy transfer” Chem Biol 4(4): 269-77) in combination with instrumentation for measuring fluorescence changes such as the Voltage/Ion Probe Reader (VIPR) (See, Gonzalez, J. E., K. Oades, et al. (1999) “Cell-based assays and instrumentation for screening ion-channel targets” Drug Discov Today 4(9): 431-439).
These voltage sensitive assays are based on the change in fluorescence resonant energy transfer (FRET) between the membrane-soluble, voltage-sensitive dye, DiSBAC2(3), and a fluorescent phospholipid, CC2-DMPE, which is attached to the outer leaflet of the plasma membrane and acts as a FRET donor. Changes in membrane potential (Vm) cause the negatively charged DiSBAC2(3) to redistribute across the plasma membrane and the amount of energy transfer from CC2-DMPE changes accordingly. The changes in fluorescence emission were monitored using VIPR™ II, which is an integrated liquid handler and fluorescent detector designed to conduct cell-based screens in 96- or 384-well microtiter plates.
Identification of Potentiator Compounds
Typical protocol utilized a basolateral to apical membrane Cl^− concentration gradient. To set up this gradient, normal ringers was used on the basolateral membrane and was permeabilized with nystatin (360 μg/ml), whereas apical NaCl was replaced by equimolar sodium gluconate (titrated to pH 7.4 with NaOH) to give a large Cl^− concentration gradient across the epithelium. All experiments were performed 30 min after nystatin permeabilization. Forskolin (10 μM) and all test compounds were added to both sides of the cell culture inserts. The efficacy of the putative ΔF508-CFTR potentiators was compared to that of the known potentiator, genistein.
Fisher rat epithelial (FRT) cells expressing ΔF508-CFTR (FRTΔ^F508-CFTR) were used for Ussing chamber experiments for the putative ΔF508-CFTR modulators identified from our optical assays. The cells were cultured on Costar Snapwell cell culture inserts and cultured for five days at 37° C. and 5% CO2 in Coon's modified Ham's F-12 medium supplemented with 5% fetal calf serum, 100 U/ml penicillin, and 100 μg/ml streptomycin. Prior to use for characterizing the potentiator activity of compounds, the cells were incubated at 27° C. for 16-48 hrs to correct for the ΔF508-CFTR. To determine the activity of corrections compounds, the cells were incubated at 27° C. or 37° C. with and without the compounds for 24 hours.
Compounds of the invention are useful as modulators of ATP binding cassette transporters. Table 3 below illustrates the EC50 and relative efficacy of certain embodiments in Table 1.

Bounds are passed on as bounds.

T1 sequence (P13569 with tags, fused parts or gaps DEL508-508): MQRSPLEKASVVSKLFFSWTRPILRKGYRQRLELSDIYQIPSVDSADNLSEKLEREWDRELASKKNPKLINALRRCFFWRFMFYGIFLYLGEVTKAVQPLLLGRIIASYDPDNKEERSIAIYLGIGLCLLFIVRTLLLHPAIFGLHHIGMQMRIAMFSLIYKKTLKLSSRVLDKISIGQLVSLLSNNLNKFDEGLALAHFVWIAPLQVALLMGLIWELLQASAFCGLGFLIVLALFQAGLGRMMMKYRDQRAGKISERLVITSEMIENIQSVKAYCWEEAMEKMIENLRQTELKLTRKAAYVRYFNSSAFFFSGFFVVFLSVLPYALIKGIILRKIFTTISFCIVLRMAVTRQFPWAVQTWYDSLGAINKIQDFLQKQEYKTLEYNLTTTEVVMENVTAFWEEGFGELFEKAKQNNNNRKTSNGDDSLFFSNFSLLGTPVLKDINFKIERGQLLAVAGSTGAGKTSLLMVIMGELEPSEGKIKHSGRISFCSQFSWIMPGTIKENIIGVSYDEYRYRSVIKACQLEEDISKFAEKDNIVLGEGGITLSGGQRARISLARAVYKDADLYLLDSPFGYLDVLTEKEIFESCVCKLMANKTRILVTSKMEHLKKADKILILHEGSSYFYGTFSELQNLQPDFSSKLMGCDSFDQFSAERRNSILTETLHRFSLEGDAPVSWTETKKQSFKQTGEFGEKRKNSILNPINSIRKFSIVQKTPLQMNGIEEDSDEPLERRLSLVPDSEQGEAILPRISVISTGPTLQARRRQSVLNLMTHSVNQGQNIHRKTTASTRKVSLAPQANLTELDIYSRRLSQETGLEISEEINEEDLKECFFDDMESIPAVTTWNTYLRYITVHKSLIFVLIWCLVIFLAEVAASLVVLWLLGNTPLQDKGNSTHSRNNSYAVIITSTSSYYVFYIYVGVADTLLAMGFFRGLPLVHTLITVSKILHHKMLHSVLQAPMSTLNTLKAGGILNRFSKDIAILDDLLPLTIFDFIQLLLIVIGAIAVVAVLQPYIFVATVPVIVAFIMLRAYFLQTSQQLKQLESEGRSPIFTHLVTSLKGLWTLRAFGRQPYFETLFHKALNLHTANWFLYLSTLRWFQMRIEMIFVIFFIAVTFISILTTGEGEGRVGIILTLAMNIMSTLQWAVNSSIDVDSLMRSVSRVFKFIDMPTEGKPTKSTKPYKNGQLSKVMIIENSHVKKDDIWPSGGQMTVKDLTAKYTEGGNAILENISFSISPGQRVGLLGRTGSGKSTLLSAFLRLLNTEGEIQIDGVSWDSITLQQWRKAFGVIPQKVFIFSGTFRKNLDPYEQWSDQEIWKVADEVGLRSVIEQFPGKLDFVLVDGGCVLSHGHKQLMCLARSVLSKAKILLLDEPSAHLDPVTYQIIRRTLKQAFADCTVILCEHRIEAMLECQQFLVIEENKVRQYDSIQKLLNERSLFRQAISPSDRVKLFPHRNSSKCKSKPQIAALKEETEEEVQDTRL

For the compound `O=C(Nc1ccc(N2CCCC2)cc1C(F)(F)F)c1c[nH]c2ccncc2c1=O` [Cmpd 7, 4-oxo-N-(4-(pyrrolidin-1-yl)-2-(trifluoromethyl)phenyl)-1,4-dihydro-1,6-naphthyridine-3-carboxamide], the maximum response (Emax) lay in the range of 25 to 100% and the concentration for a half-maximal effect (EC50) is < 10 µM.

Consider `CC(C)(C)c1cc(C(C)(C)C)c(NC(=O)c2c[nH]c3cnccc3c2=O)cc1O` [Cmpd 9, N-(2,4-di-tert-butyl-5-hydroxyphenyl)-4-oxo-1,4-dihydro-1,7-naphthyridine-3-carboxamide], for which the Emax fell in the range of 25 to 100% and the EC50 was < 10 µM.

As to `CC(C)c1ccccc1NC(=O)c1c[nH]c2ccncc2c1=O` [Cmpd 4, N-(2-isopropylphenyl)-4-oxo-1,4-dihydro-1,6-naphthyridine-3-carboxamide], the Emax is 25 to 100% and the half-maximal effective concentration (EC50) is < 10 µM.

In the case of `O=C(Nc1ccc(N2CCCC2)cc1C(F)(F)F)c1c[nH]c2cnccc2c1=O` [Cmpd 11, 4-oxo-N-(4-(pyrrolidin-1-yl)-2-(trifluoromethyl)phenyl)-1,4-dihydro-1,7-naphthyridine-3-carboxamide], the Emax was 25 to 100% and the EC50 is < 10 µM.

With `CCCc1ccccc1NC(=O)c1c[nH]c2ccncc2c1=O` [Cmpd 3, 4-oxo-N-(2-propylphenyl)-1,4-dihydro-1,6-naphthyridine-3-carboxamide], the maximum response (Emax) is 25 to 100% and the concentration giving a half-maximal response (EC50) was < 10 µM.

Take `CC1(c2cc(F)c(NC(=O)c3c[nH]c4cnccc4c3=O)cc2O)CCCCC1` [Cmpd 13, N-(2-fluoro-5-hydroxy-4-(1-methylcyclohexyl)phenyl)-4-oxo-1,4-dihydro-1,7-naphthyridine-3-carboxamide]: the Emax lay within 25 to 100% and the concentration for a half-maximal effect (EC50) is < 10 µM.

Turning to `O=C(Nc1ccc2c(C(F)(F)F)c[nH]c2c1)c1c[nH]c2cnccc2c1=O` [Cmpd 16, 4-oxo-N-(3-(trifluoromethyl)-1H-indol-6-yl)-1,4-dihydro-1,7-naphthyridine-3-carboxamide], the Emax lay in the range of 25 to 100% and the concentration giving a half-maximal response (EC50) is < 10 µM.

As to `CC(C)(C)c1cc2cc[nH]c2cc1NC(=O)c1c[nH]c2cnccc2c1=O` [Cmpd 10, N-(5-tert-butyl-1H-indol-6-yl)-4-oxo-1,4-dihydro-1,7-naphthyridine-3-carboxamide], the Emax lay in the range of 25 to 100% and the 50% effective concentration (EC50) was < 10 µM.

Turning to `O=C(NCC1(c2ccc(OC(F)(F)F)cc2)CCCC1)c1c[nH]c2ccncc2c1=O` [Cmpd 8, 4-oxo-N-((1-(4-(trifluoromethoxy)phenyl)-cyclopentyl)methyl)-1,4-dihydro-1,6-naphthyridine-3-carboxamide], the Emax fell in the range of 25 to 100% and the EC50 was < 10 µM.

Take `Cc1cc2c(=O)c(C(=O)Nc3cc(O)c(C4(C)CCCCC4)cc3F)c[nH]c2cn1` [Cmpd 17, N-(2-fluoro-5-hydroxy-4-(1-methylcyclohexyl)phenyl)-6-methyl-4-oxo-1,4-dihydro-1,7-naphthyridine-3-carboxamide]: the Emax was < 25% and the concentration giving a half-maximal response (EC50) was 10 to 25 µM.

With `CC1(C)CCCN(c2ccc(NC(=O)c3c[nH]c4cnccc4c3=O)c(C(F)(F)F)c2)C1` [Cmpd 18, N-(4-(3,3-dimethylpiperidin-l-yl)-2-(trifluoromethyl)phenyl)-4-oxo-1,4-dihydro-1,7-naphthyridine-3-carboxamide], the Emax lay in the range of 25 to 100% and the EC50 was < 10 µM.

Turning to `Cc1cc2c(=O)c(C(=O)Nc3cc4[nH]ccc4cc3C(F)(F)F)c[nH]c2cn1` [Cmpd 15, 6-methyl-4-oxo-N-(5-(trifluoromethyl)-1H-indol-6-yl)-1,4-dihydro-1,7-naphthyridine-3-carboxamide], the Emax is 25 to 100% and the 50% effective concentration (EC50) was < 10 µM.

As to `O=C(NCC(c1ccccc1)c1ccccc1)c1c[nH]c2ccncc2c1=O` [Cmpd 2, N-(2,2-diphenylethyl)-4-oxo-1,4-dihydro-1,6-naphthyridine-3-carboxamide], the Emax was in the range of 25 to 100% and the EC50 was < 10 µM.

In the case of `O=C(Nc1ccccc1-c1ccccc1)c1c[nH]c2ccncc2c1=O` [Cmpd 5, N-(biphenyl-2-yl)-4-oxo-1,4-dihydro-1,6-naphthyridine-3-carboxamide], the Emax was 25 to 100% and the EC50 is < 10 µM.

With `O=C(NC(c1ccccc1)c1ccccc1)c1c[nH]c2ccncc2c1=O` [Cmpd 1, N-benzhydryl-4-oxo-1,4-dihydro-1,6-naphthyridine-3-carboxamide], the Emax was > 100% and the EC50 is < 10 µM.

Take `O=C(Nc1ccc2cc[nH]c2c1)c1c[nH]c2ccncc2c1=O` [Cmpd 6, N-(1H-indol-6-yl)-4-oxo-1,4-dihydro-1,6-naphthyridine-3-carboxamide]: the maximal response (Emax) is < 25% and the concentration for a half-maximal effect (EC50) is < 10 µM.

In the case of `O=C(Nc1cc2[nH]ccc2cc1C(F)(F)F)c1c[nH]c2cnccc2c1=O` [Cmpd 14, 4-oxo-N-(5-(trifluoromethyl)-1H-indol-6-yl)-1,4-dihydro-1,7-naphthyridine-3-carboxamide], the Emax is 25 to 100% and the concentration giving a half-maximal response (EC50) was < 10 µM.

For `C[C@H]1CCCN1c1ccc(NC(=O)c2c[nH]c3cnccc3c2=O)c(C(F)(F)F)c1` [Cmpd 12, (S)-N-(4-(2-methylpyrrolidin-1-yl)-2-(trifluoromethyl)phenyl)-4-oxo-1,4-dihydro-1,7-naphthyridine-3-carboxamide], the Emax lay in the range of 25 to 100% and the half-maximal effective concentration (EC50) is < 10 µM.
